Assay results published in US9358297B2, “Posaconazole intravenous solution formulations stabilized by substituted β-cyclodextrin” (Merck Sharp & Dohme Corp., priority 2010, dated 2016).
Converted amounts (≈) assume the structure as drawn. Like-named read-outs stand apart in the source and are kept apart here. Values belong to the compound of their own block, whether it stands above or below them.

Key:
[1] = Posaconazole solubility in modified β and γ-cyclodextrins; assay type: physicochemical; conditions: for fold more posaconazole solubilized than Captisol: 100 mM cyclodextrin solutions; for solubility: pH 4.5, aqueous with cosolvent or surfactant or cyclodextrin
Protocol: The solubilities of posaconazole in each of several modified β and γ-cyclodextrins were evaluated. Solubilization of posaconazole was tested with three gamma cyclodextrins; SBE (5.2)-gamma, SBE (5.2) Et (3.9)-gamma and SBE (5.2) Et (4.9)-gamma cyclodextrin, (CyDex, Inc.).
On the other hand, some changes in β-cyclodextrin substitutions did lead to greater solubilization. Utilizing 100 mM cylodextrin solutions at pH 4.5, solubilization of posaconazole with SBE (4.6)-β, SBE (4.6)-Et (3.5)-β and SBE (4.6)-Et (8.5)-β cyclodextrins, versus Captisol®, was evaluated. The SBE (4.6)-Et (3.5)-β and SBE (4.6)-Et (8.5)-β cyclodextrins solubilized 2.6 and 6.6 fold more posaconazole (respectively) than did Captisol® (See FIG. 2). However, the extensive Captisol® safety information outweighed the potential benefits of greater solubilization and, for this reason, formulations with other sulfobutyl ether cyclodextrins were not further developed.

[2] = Posaconazole solubility in acidified Captisol solutions; assay type: physicochemical; conditions: for solubility: acidified Captisol solution
Protocol: In an effort to evaluate the range of posaconazole solubilities that could be achieved at feasible pH's, a series of solutions was prepared with a fixed Captisol® concentration. Utilizing an acidic solution of 20% Captisol® (w/v), the solubility of posaconazole was increased more than 1000 times and it was determined that a target concentration of 5 mg/mL could be achieved.
Posaconazole solubility was also evaluated in acidified solutions with different Captisol® concentrations. […] Therefore, at some pH values, as the Captisol® concentration increases, the ratio of Captisol® to solubilized posaconazole will decrease. Based on this solubility effect, a formulation could be developed whereby for the same posaconazole daily dosage, the daily dose of Captisol® could be decreased.
Hydrochloric acid was used as an acidifier in the posaconazole formulation. However, several additional acidifiers (i.e., citric, sulfuric, maleic, phosphoric, acetic, L-tartaric, D-tartaric, DL-tartaric, methanesulfonic, naphthalenesulfonic, p-toluenesulfonic, lactic, L-lactic, L-ascorbic and malic acid, as well as, glycine hydrochloride) were also evaluated in regard to posaconazole solubilization.

[3] = Effect of co-solvents and non-ionic surfactants on posaconazole solubility in 100 mM Captisol; assay type: physicochemical; conditions: pH 4.5, aqueous with cosolvent or surfactant or cyclodextrin, thermodynamic from solid
Protocol: In an effort to explore further improvements to the formulation, the effects of various co-solvents and non-ionic surfactants, on the solubility of posaconazole in a 100 mM Captisol® solution, were examined. The Captisol® solutions were adjusted with HCl to pH 4.5 and an appropriate amount of co-solvent was added. An excess amount of posaconazole was added to the pH-adjusted cyclodextrin/co-solvent solution and the solutions were allowed to equilibrate for a period of three days. The contents of the vials were then centrifuged and the supernatant was assayed for posaconazole.

[4] = neutral and basic aqueous solutions; cited from earlier work
[5] = in water; cited from earlier work

fold more posaconazole solubilized than Captisol ([1]; pH 4.5): 6.6 fold
Compound: SBE (4.6)-Et (8.5)-β cyclodextrin

fold more posaconazole solubilized than Captisol ([1]; pH 4.5): 2.6 fold
Compound: SBE (4.6)-Et (3.5)-β cyclodextrin

solubility ([2]; pH 3, aqueous with cosolvent or surfactant or cyclodextrin, 20% Captisol, pH 3.0): 8700 µg/mL (≈ 12.4 mM)
solubility ([2]; pH 3.1, aqueous with cosolvent or surfactant or cyclodextrin, 20% Captisol, pH 3.1, calculated average of measured solubility at pH 3.0 and pH 3.2): 7800 µg/mL (≈ 11.1 mM)
solubility ([2]; pH 3.1, aqueous with cosolvent or surfactant or cyclodextrin, 40% Captisol, pH 3.1): 22500 µg/mL (≈ 32.1 mM)
solubility ([2]; pH 3.2, aqueous with cosolvent or surfactant or cyclodextrin, 20% Captisol, pH 3.2): 6900 µg/mL (≈ 9.85 mM)
solubility ([2]; pH 3.4, aqueous with cosolvent or surfactant or cyclodextrin, 20% Captisol, pH 3.4): 5200 µg/mL (≈ 7.42 mM)
solubility ([2]; pH 3.6, aqueous with cosolvent or surfactant or cyclodextrin, 20% Captisol, pH 3.6): 4000 µg/mL (≈ 5.71 mM)
solubility ([2]; pH 3.8, aqueous with cosolvent or surfactant or cyclodextrin, 20% Captisol, pH 3.8): 3100 µg/mL (≈ 4.42 mM)
posaconazole solubilization with additional acidifiers versus hydrochloric acid ([2]; citric, sulfuric, maleic, phosphoric, acetic, tartaric, sulfonic, lactic, ascorbic, malic acids, glycine hydrochloride, same pH): no improvement in solubility
solubility at 3 days ([3]; Captisol solution with co-solvent, 100 mM Captisol pH 4.5 + 10% PEG 400): 1280 µg/mL
solubility at 3 days ([3]; Captisol solution with co-solvent, 100 mM Captisol pH 4.5 + 10% PVP): 640 µg/mL
solubility at 3 days ([3]; Captisol solution with co-solvent, 100 mM Captisol pH 4.5 + 10% Propylene Glycol): 410 µg/mL
solubility at 3 days ([3]; Captisol solution with surfactant, 100 mM Captisol pH 4.5 + 0.1% Poloxamer F-68): 1630 µg/mL
solubility at 3 days ([3]; Captisol solution with surfactant, 100 mM Captisol pH 4.5 + 0.1% Tween 20): 1710 µg/mL
solubility at 3 days ([3]; Captisol solution with surfactant, 100 mM Captisol pH 4.5 + 0.1% Tween 80): 1740 µg/mL
solubility at 3 days ([3]; Captisol solution, Control (100 mM Captisol), pH 4.5, three days equilibration): 1770 µg/mL (≈ 2.53 mM)
fold less solubility with gamma cyclodextrins than with Captisol ([1]; pH 4.5): approximately 8 fold
solubility ([1]; highest posaconazole solubility achieved): 189 µg/mL (≈ 0.27 mM)
solubility ([1]; posaconazole solubility): 1510 µg/mL (≈ 2.15 mM)
Compound: CC[C@@H]([C@H](C)O)n1ncn(-c2ccc(N3CCN(c4ccc(OC[C@@H]5CO[C@@](Cn6cncn6)(c6ccc(F)cc6F)C5)cc4)CC3)cc2)c1=O [Posaconazole, posaconazole]
solubility [4]: less than 1 μg/mL

Compound: Sulfobutyl ether-β-cyclodextrins, (SBE-β-CD) sodium salt [Captisol®]
solubility [5]: >800 mg/mL in water
